Experimental data as given in patent publication US9951064B2, “Azaindazole compounds as inhibitors of T790M containing EGFR mutants” (Genentech, Inc., priority 2013, dated 2018).
Like-named read-outs stand apart in the source and are kept apart here.

How the values were obtained:
[1] = biological target: T1, phosphor-EGFR in H1975(L585R/T790M) mutant EGFR expressing cells (Homo sapiens, UniProt P00533, L858R/T790M); test: H1975 pEGFR MSD cellular assay; format: cell-based; conditions: NCI-H1975 cells, serum starved, 1 hour compound incubation, pEGFR Tyr1068 MSD; read-out: HI975 pEGFR EC50
T1 construct: host or cells: NCI-H1975
Outline: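 Phospho-EGFR read by MSD electrochemiluminescence: capture with anti-pEGFR antibody (overnight, 4° C), detection with SULFO-TAG anti-total EGFR (1 hour, room temperature). Before lysis, H1975 cells starved of serum overnight got compound for 1 hour at 37° C, 0.5% DMSO final. EC50 via four-parameter logistic regression of percent inhibition.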

[2] = test system: H1975 (EGFR T790M/L858R) cell proliferation; test: H1975 proliferation assay (Cell Titer-Glo); format: cell-based; conditions: NCI-H1975 cells, 72 hour incubation, read-out: H1975 antiproliferative EC50
Description: H1975 Proliferation Assays
All cell culture reagents were purchased from Invitrogen/Gibco. Cells are cultured at 37° C. at 5% CO2 and split as recommended by ATCC.

EGFR T790M L858R = biological target: T2, EGFR T790M L858R (Homo sapiens, UniProt P00533, L858R/T790M); test: EGFR T790M L858R biochemical assay (Caliper mobility shift); conditions: 5 μM ATP; apparent Ki (Morrison fit) converted by Cheng-Prusoff, Km of ATP 1.3 μM
T2 construct: purchased Life Technologies PV4879
Outline: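 Caliper mobility-shift read-out, electrophoretic separation of substrate from product, after a 30-minute kinase reaction at 22 °C. EDTA at 80 mM terminates each reaction.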

EGFR del746-750 T790M = biological target: T3, EGFR del746-750 T790M (Homo sapiens, UniProt P00533, DEL746-750/T790M); test: EGFR del746-750 T790M biochemical assay (Caliper mobility shift); conditions: 5 μM ATP; apparent Ki (Morrison fit) converted by Cheng-Prusoff, Km of ATP 2.1 μM; read-out: EGFR(T790M/d746-750) Ki
T3 construct: purchased Carna Biosciences 08-528
Outline: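 Caliper mobility-shift read-out, with product electrophoretically resolved from substrate and measured. Reactions were quenched with 80 mM EDTA after 30 min at 22 °C.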

T3 sequence (P00533 with tags, fused parts or gaps DEL746-750/T790M limits assumed): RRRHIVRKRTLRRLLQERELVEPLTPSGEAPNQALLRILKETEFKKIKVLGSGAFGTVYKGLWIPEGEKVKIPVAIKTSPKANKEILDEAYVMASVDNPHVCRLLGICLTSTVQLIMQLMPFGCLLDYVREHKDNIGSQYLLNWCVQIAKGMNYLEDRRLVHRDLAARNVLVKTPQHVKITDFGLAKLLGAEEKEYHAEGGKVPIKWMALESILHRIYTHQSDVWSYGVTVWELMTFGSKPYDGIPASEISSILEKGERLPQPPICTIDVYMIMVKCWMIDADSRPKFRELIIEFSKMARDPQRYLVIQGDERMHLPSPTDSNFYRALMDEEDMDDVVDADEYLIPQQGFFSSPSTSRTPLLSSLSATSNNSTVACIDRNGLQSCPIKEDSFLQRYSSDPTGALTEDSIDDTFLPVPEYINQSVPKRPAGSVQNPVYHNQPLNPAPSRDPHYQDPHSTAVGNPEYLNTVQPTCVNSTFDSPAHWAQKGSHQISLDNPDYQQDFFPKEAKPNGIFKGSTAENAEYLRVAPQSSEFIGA
T1 sequence (P00533 25-1210 T790M/L858R): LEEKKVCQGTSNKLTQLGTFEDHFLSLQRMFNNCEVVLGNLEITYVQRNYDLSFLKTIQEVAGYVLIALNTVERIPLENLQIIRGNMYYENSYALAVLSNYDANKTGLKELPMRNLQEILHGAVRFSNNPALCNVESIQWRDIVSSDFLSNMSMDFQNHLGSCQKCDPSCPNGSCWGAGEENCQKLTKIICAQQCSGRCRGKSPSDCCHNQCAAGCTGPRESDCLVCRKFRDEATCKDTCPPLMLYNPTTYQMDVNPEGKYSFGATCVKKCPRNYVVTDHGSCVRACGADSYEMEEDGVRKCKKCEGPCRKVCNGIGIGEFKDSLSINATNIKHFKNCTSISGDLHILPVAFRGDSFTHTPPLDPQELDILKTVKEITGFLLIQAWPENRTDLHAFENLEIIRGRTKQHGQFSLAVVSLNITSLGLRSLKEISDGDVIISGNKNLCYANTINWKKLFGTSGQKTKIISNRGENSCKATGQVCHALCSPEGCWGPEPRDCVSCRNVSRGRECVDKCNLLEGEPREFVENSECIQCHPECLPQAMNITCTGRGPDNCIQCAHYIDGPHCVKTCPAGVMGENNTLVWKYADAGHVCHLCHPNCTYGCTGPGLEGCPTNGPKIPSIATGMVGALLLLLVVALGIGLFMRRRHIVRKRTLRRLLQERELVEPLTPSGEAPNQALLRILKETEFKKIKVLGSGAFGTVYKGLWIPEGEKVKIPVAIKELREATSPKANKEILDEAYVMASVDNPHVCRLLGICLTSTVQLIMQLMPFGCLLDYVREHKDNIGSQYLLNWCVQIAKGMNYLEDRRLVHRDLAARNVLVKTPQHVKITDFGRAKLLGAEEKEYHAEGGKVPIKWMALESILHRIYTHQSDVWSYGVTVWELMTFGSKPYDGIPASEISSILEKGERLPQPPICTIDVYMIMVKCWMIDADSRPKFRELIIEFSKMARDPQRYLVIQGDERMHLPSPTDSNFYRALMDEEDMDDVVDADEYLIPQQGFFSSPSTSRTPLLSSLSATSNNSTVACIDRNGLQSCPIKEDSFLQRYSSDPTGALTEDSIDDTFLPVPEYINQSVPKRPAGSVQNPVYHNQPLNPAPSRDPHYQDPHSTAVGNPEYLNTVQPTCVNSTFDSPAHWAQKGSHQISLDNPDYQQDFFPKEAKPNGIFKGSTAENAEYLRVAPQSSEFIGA
T2 sequence (P00533 25-1210 T790M/L858R): as above

EC50 [1] [nM] | EC50 ([2]; Homo sapiens, NCI-H1975, 72 h) [nM] | Ki (EGFR T790M L858R) [nM] | Ki (EGFR del746-750 T790M) [nM] | EC50 [2] [nM] | Structure (SMILES)
110 | 1280 | 1.6 | 3.1 |  | C[C@@H](n1nc(N2CC[C@@H](O)C2)c2cnc(Nc3ccnc(N4CC[C@H](O)[C@H](F)C4)n3)cc21)C(F)(F)F (relative stereo) [Example 142, (±)-cis-3-Fluoro-1-(4-(3-((R)-3-hydroxypyrrolidin-1-yl)-1-((R*)-1,1,1-trifluoropropan-2-yl)-1H-pyrazolo[4,3-c]pyridin-6-ylamino)pyrimidin-2-yl)piperidin-4-ol]
141 | 801 | 1.8 | 3.8 |  | CC(C)n1nc(N2CC(F)(F)C2)c2cnc(Nc3ccnc(N4CC[C@H](O)[C@H](F)C4)n3)cc21 (racemic) [Example 174, (±)-cis-1-(4-(3-(3,3-Difluoroazetidin-1-yl)-1-isopropyl-1H-pyrazolo[4,3-c]pyridin-6-ylamino)pyrimidin-2-yl)-3-fluoropiperidin-4-ol]
77 | 619 | 1.5 | 2.1 |  | CCC(C)n1nc(N2CC[C@@H](O)C2)c2cnc(Nc3ccnc(N4CCC(C)(O)CC4)n3)cc21 (stereo partly drawn) [Example 203, 1-(4-((1-(sec-Butyl)-3-((R)-3-hydroxypyrrolidin-1-yl)-1H-pyrazolo[4,3-c]pyridin-6-yl)amino)pyrimidin-2-yl)-4-methylpiperidin-4-ol]
83 | 371 | 2 | 2.3 |  | CC[C@H](C)n1nc(N2CC[C@H](O)C2)c2cnc(Nc3ccnc(N4CC[C@](C)(O)[C@H](F)C4)n3)cc21 (relative stereo) [Example 70, (3R*,4S*)-1-{4-[1-((S)-sec-Butyl)-3-((S)-3-hydroxypyrrolidin-1-yl)-1H-pyrazolo[4,3-c]pyridin-6-ylamino]pyrimidin-2-yl}-3-fluoro-4-methylpiperidin-4-ol]
22.3 | 225 | 1.8 | 2.5 |  | CC(C)n1nc(N2CC[C@@H](O)C2)c2cnc(Nc3ccnc(N4C[C@@H](F)[C@@H](O)C(C)(C)C4)n3)cc21 (racemic) [Example 148, cis-5-Fluoro-1-(4-(3-((R)-3-hydroxypyrrolidin-1-yl)-1-isopropyl-1H-pyrazolo[4,3-c]pyridin-6-ylamino)pyrimidin-2-yl)-3,3-dimethylpiperidin-4-ol]
63.8 | 631 | 2.1 | 4.6 |  | CC[C@H](C)n1nc(N2CC3(COC3)C2)c2cnc(Nc3ccnc(N4CC[C@@](C)(O)[C@@H](F)C4)n3)cc21 (single isomer, unassigned) [Example 66, (3R*,4S*)-1-{4-[1-((S)-sec-Butyl)-3-(2-oxa-6-azaspiro[3.3]hept-6-yl)-1H-pyrazolo[4,3-c]pyridin-6-ylamino]pyrimidin-2-yl}-3-fluoro-4-methylpiperidin-4-ol]
487 | > 3000 | 5.4 | 20.5 |  | CC(C)n1nc(N2CCNC2=O)c2cnc(Nc3ccnc(N4CCC(O)C(F)C4)n3)cc21 (racemic) [Example 22, (±)-1-(6-((2-(cis-3-Fluoro-4-hydroxypiperidin-1-yl)pyrimidin-4-yl)amino)-1-isopropyl-1H-pyrazolo[4,3-c]pyridin-3-yl)imidazolidin-2-one]
1100 | 9730 | 11.6 | 28.5 |  | CC(C)n1nc(N2CC[C@H](N)C2=O)c2cnc(Nc3ccnc(N4CCC(C)(O)CC4)n3)cc21 [Example 159, (S)-3-Amino-1-(6-(2-(4-hydroxy-4-methylpiperidin-1-yl)pyrimidin-4-ylamino)-1-isopropyl-1H-pyrazolo[4,3-c]pyridin-3-yl)pyrrolidin-2-one]
97.8 | 766 | 1.4 | 2.6 |  | CC(C)n1nc(N2CC3(CC(O)C3)C2)c2cnc(Nc3ccnc(N4CC[C@H](O)[C@H](F)C4)n3)cc21 (racemic) [Example 175, (±)-2-(6-((2-((cis)-3-Fluoro-4-hydroxypiperidin-1-yl)pyrimidin-4-yl)amino)-1-isopropyl-1H-pyrazolo[4,3-c]pyridin-3-yl)-2-azaspiro[3.3]heptan-6-ol]
12.8 |  | 1.2 | 2.7 | 149 | CCC(C)n1nc(N2CC3(COC3)C2)c2cnc(Nc3ccnc(N4CC[C@@H](O)[C@@H](F)C4)n3)cc21 (single isomer, unassigned) [Example 197, (3S,4R)-1-(4-((1-((R*)-sec-Butyl)-3-(2-oxa-6-azaspiro[3.3]heptan-6-yl)-1H-pyrazolo[4,3-c]pyridin-6-yl)amino)pyrimidin-2-yl)-3-fluoropiperidin-4-ol]

Further lines, the molecule ahead of its results:

Structure (SMILES) | EC50 [1] [nM] | EC50 ([2]; Homo sapiens, NCI-H1975, 72 h) [nM] | Ki (EGFR T790M L858R) [nM] | Ki (EGFR del746-750 T790M) [nM] | EC50 [2] [nM]
CC(C)n1nc(N2CCC(C(=O)N(C)C)C2)c2cnc(Nc3ccnc(-c4cnn(S(=O)(=O)C5CC5)c4)n3)cc21 (stereo not shown) [Example 156, 1-(6-(2-(1-(Cyclopropylsulfonyl)-1H-pyrazol-4-yl)pyrimidin-4-ylamino)-1-isopropyl-1H-pyrazolo[4,3-c]pyridin-3-yl)N,N-dimethylpyrrolidine-3-carboxamide] | 39.2 | 163 | 1.1 | 0.8 | 
CCS(=O)(=O)n1cc(-c2nccc(Nc3cc4c(cn3)c(NC3CCOC3)nn4C(C)C)n2)cn1 (stereo not shown) [Example 38, N6-(2-(1-(ethylsulfonyl)-1H-pyrazol-4-yl)pyrimidin-4-yl)-1-isopropyl-N3-(tetrahydrofuran-3-yl)-1H-pyrazolo[4,3-c]pyridine-3,6-diamine] | 40.8 | 272 | 1.1 | 2.4 | 
CC(C)n1nc(N2CCC3(CCNC3=O)C2)c2cnc(Nc3ccnc(-c4cnn(S(=O)(=O)C5CC5)c4)n3)cc21 (stereo not shown) [Example 112, 7-(6-((2-(1-(Cyclopropylsulfonyl)-1H-pyrazol-4-yl)pyrimidin-4-yl)amino)-1-isopropyl-1H-pyrazolo[4,3-c]pyridin-3-yl)-2,7-diazaspiro[4.4]nonan-1-one] | 62.6 | 740 | 1.1 | 1 | 
CCC(C)n1nc(N2CCNC2=O)c2cnc(Nc3ccnc(-c4cnn(S(=O)(=O)C5CC5)c4)n3)cc21 (stereo not shown) [Example 25, 1-(1-(sec-Butyl)-6-((2-(1-(cyclopropylsulfonyl)-1H-pyrazol-4-yl)pyrimidin-4-yl)amino)-1H-pyrazolo[4,3-c]pyridin-3-yl)imidazolidin-2-one] | 38.3 | 138 | 1 | 2.5 | 
CC(C)n1nc(NCCS(C)(=N)=O)c2cnc(Nc3ccnc(-c4cnn(S(=O)(=O)C5CC5)c4)n3)cc21 (stereo not shown) [Example 125, N^6-(2-(1-(Cyclopropylsulfonyl)-1H-pyrazol-4-yl)pyrimidin-4-yl)-1-isopropyl-N^3-(2-(S-methylsulfonimidoyl)ethyl)-1H-pyrazolo[4,3-c]pyridine-3.6-diamine] | 2840 | > 10000 | 1.1 | 0.8 | 
CC(C)n1nc(N2CC(CC#N)C2)c2cnc(Nc3ccnc(-c4cnn(S(=O)(=O)C5CC5)c4)n3)cc21 [Example 121, 2-(1-(6-(2-(1-(Cyclopropylsulfonyl)-1H-pyrazol-4-yl)pyrimidin-4-ylamino)-1-isopropyl-1H-pyrazolo[4,3-c]pyridin-3-yl)azetidin-3-yl)acetonitrile] | 19.6 | 184 | 0.8 | 0.7 | 
CC(C)n1nc(N2CC3(C2)CS(=O)(=O)C3)c2cnc(Nc3ccnc(N4CCC(C)(O)CC4)n3)cc21 [Example 160, 6-(6-((2-(4-Hydroxy-4-methylpiperidin-1-yl)pyrimidin-4-yl)amino)-1-isopropyl-1H-pyrazolo[4,3-c]pyridin-3-yl)-2-thia-6-azaspiro[3.3]heptane 2,2-dioxide] | 962 | 3090 | 5.1 | 9.7 | 
CC(C)n1nc(N2CC(C#N)CC2=O)c2cnc(Nc3ccnc(N4CCC(C)(O)CC4)n3)cc21 (stereo not shown) [Example 137, 1-(6-(2-(4-Hydroxy-4-methylpiperidin-1-yl)pyrimidin-4-ylamino)-1-isopropyl-1H-pyrazolo[4,3-c]pyridin-3-yl)-5-oxopyrrolidine-3-carbonitrile] | 715 | 1100 | 10.1 | 27 | 
CC(C)n1nc(N2CCC2)c2cnc(Nc3ccnc(-c4cnn(S(=O)(=O)C5CC5)c4)n3)cc21 [Example 54, 3-(azetidin-1-yl)-N-(2-(1-(cyclopropylsulfonyl)-1H-pyrazol-4-yl)pyrimidin-4-yl)-1-isopropyl-1H-pyrazolo[4,3-c]pyridin-6-amine] | 17.9 | 158 | 0.7 | 0.5 | 
